In the supplement of paper PMC7444282:

Experiments:
Vero E6 [1] = assay: cytotoxicity CC50 (uninfected Vero E6, ATP content); higher = less cytotoxic; details: virus: none (uninfected); 72 h
Procedure: (§1)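 Read-out is CellTiter-Glo ATP luminescence, normalised to DMSO-only wells (0% rescue) and no-virus wells (100% rescue). The cytotoxicity counter-assay used the same protocol without virus, normalised to DMSO (100% viability) and hyamine (0% viability). Confirmation used 8-point 1:3 titrations in duplicate, fitted to a four-parameter Hill equation.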

Vero E6 [2] = assay: cytotoxicity maximal efficacy (% viability loss, DMSO = 0%, hyamine = 100%); higher = more cytotoxic; details: virus: none (uninfected); 72 h
Procedure: as §1

Vero E6 [3] = assay: CPE rescue EC50 (SARS-CoV-2 infected Vero E6); higher = less potent antiviral; details: virus: SARS-CoV-2 USA_WA1/2020, MOI 0.002; 72 h
Procedure: as §1

SMILES	cytotoxicity CC50 (Vero E6 [1])	cytotoxicity maximal efficacy (Vero E6 [2])	CPE rescue EC50 (Vero E6 [3])
CC(=O)OC[C@]12C[C@H](OC(=O)CC(C)C)C(C)=C[C@H]1O[C@@H]1[C@H](O)[C@@H](O)[C@@]2(C)[C@]12CO2	0.127 µM	–	–
NC(=O)c1ccccc1Nc1ccnc(Nc2cccc(O)c2)n1	1 µM	–	–
CN(CCCNC(=O)c1ccc2nc3c(c(Cl)c2c1)CCCC3)Cc1ccccc1	12.6 µM	39.1%	–
Cn1cc(-c2ccc(-c3cncc(Cl)c3N3CCC4(CCNC4=O)CC3)cc2)cn1	0.282 µM	–	–
C/C=C(\C)C(=O)OC1C(C)C2(O)C3C=C(C)C(=O)C3CC(CO)=CC2C2C(C)(C)C12OC(C)=O (stereo unspecified)	0.348 µM	–	–
CO/C1=C\C(C)=C\[C@@H](C)[C@@H](O)[C@@H](C)C/C(C)=C/C=C\[C@H](OC)C([C@@H](C)[C@@H](O)[C@H](C)[C@@]2(O)C[C@@H](O)[C@H](C)C(C(C)C)O2)OC1=O (stereo partly specified)	0.101 µM	–	–
C[C@@H]1O[C@@H](O[C@@H]2[C@@H](O)[C@H](O[C@@H]3[C@@H](O)[C@@H](O)[C@H](O[C@H]4[C@H](OC(=O)[C@]56CCC(C)(C)C[C@H]5C5=CCC7[C@@]8(C)C[C@H](O)[C@H](O[C@@H]9O[C@@H](C)[C@H](O)[C@@H](O)[C@H]9O)[C@@](C)(CO)C8CC[C@@]7(C)[C@]5(C)C[C@H]6O)O[C@H](C)[C@H](O)[C@@H]4O)O[C@H]3C)OC[C@H]2O)[C@H](O)[C@H](O)[C@H]1O (stereo partly specified)	–	–	0.851 µM
Cn1c(Nc2ccc(C(F)(F)F)cc2)nc2cc(Oc3ccnc(-c4ncc(C(F)(F)F)[nH]4)c3)ccc21	0.316 µM	–	0.794 µM
Cn1cc(S(=O)(=O)c2ccc(Cl)cc2)c2cccc(N3CCNCC3)c21	11.2 µM	48.3%	–
CN(C)c1cc2c(cc1Sc1nc3c(N)nccc3n1CCNCC(C)(C)C)OCO2	0.708 µM	–	–
COc1ccc2c(Oc3ccc(NC(=O)c4c(C)n(CC(C)(C)O)n(-c5ccccc5)c4=O)cc3F)ccnc2c1	14.1 µM	70.3%	–
CCC(C)C(=O)OC12C(OC(C)=O)C(C)C3(O)C(C=C(CO)CC4(O)C(=O)C(C)=CC43)C1C2(C)C (stereo unspecified)	–	–	0.982 µM
CC(C)(N)c1ccc(-c2nc3ccccc3nc2-c2ccccc2)cc1	12.6 µM	34.2%	–
COc1ccc2sc(NC(c3ccc(OC(F)F)cc3)c3ccc4cccnc4c3O)nc2c1 (stereo unspecified)	0.708 µM	–	0.891 µM
COC(=O)[C@@]12OC[C@]34[C@H]([C@@H](O)[C@@H]1O)[C@@]1(C)CC(=O)C(O)=C(C)[C@@H]1C[C@H]3OC(=O)[C@H](OC(=O)/C=C(\C)C(C)C)[C@@H]24	0.142 µM	–	–
CCc1ccc(/C=C2/SC(=S)NC2=O)cc1	12.6 µM	34.2%	–
CC(=O)c1c(OCCN2CCCCC2)c(OCCC(C)c2ccc(F)cc2)c2oc(C)nc2c1C (stereo unspecified)	14.1 µM	33.2%	–
C[C@@H]1O[C@@H](O[C@H]2[C@H](OC(=O)[C@]34CCC(C)(C)C[C@H]3C3=CCC5[C@@]6(C)CC[C@H](O[C@@H]7O[C@H](CO[C@@H]8OC[C@H](O)[C@H](O)[C@H]8O)[C@@H](O)[C@H](O)[C@H]7O)C(C)(C)C6CC[C@@]5(C)[C@]3(C)C[C@H]4O)OC[C@@H](O)[C@@H]2O)[C@H](O)[C@H](O)[C@H]1O[C@@H]1OC[C@H](O)[C@H](O[C@@H]2OC[C@@H](O)[C@H](O)[C@H]2O)[C@H]1O (stereo partly specified)	–	–	0.603 µM
C/C(=N\Nc1nnc2c(n1)[nH]c1c(C)cccc12)c1ccccn1	0.355 µM	76.3%	–
OC1CCC(Oc2cccc3cnc(Nc4ccc5nc[nH]c5c4)nc23)CC1 (stereo unspecified)	0.891 µM	50.5%	–
O=S(=O)(Cc1ccccc1)Nc1ccc(-c2ccc3c(cnn3-c3ccc(F)cc3)c2)c(C(F)(F)F)c1	14.1 µM	24.3%	–
c1ccc2c(-c3cnn4cc(-c5ccc(OCCN6CCOCC6)cc5)cnc34)ccnc2c1	5.52 µM	29.1%	–
O=c1cc(-c2cccc3c2Sc2ccccc2S3)oc(N2CCOCC2)c1	10 µM	42.6%	–
OCCCNc1cc(-c2ccnc(Nc3cccc(Cl)c3)n2)ccn1	0.112 µM	–	–

SMILES	cytotoxicity CC50 (Vero E6 [1])	cytotoxicity maximal efficacy (Vero E6 [2])	CPE rescue EC50 (Vero E6 [3])
COc1ccc(-c2csc(NC(=O)[C@H]3CCCCN3S(=O)(=O)c3ccc(C)cc3)n2)cc1	2 µM	–	–
N#Cc1ccc(O[C@@H]2c3ccccc3C[C@H]2N2CCC[C@@H](N)C2)c(Cl)c1	12.6 µM	52.9%	–
O=C(O)c1ccc(CCCc2ccc(OCCc3ccc(F)cc3)cc2)o1	–	–	0.141 µM
COc1ccccc1OCCNCC(O)CCOc1cccc2[nH]c3ccccc3c12 (stereo unspecified)	10 µM	16.2%	–
CC(C)[C@H]1C(=O)N[C@H](CO)Cc2c[nH]c3cccc(c23)N1C	1.24 µM	20.4%	–
O[C@H]1[C@H]2c3cc4c(cc3CN3CCC(=C[C@@H]1O)[C@H]23)OCO4	–	–	0.631 µM
O=C(c1ccc(-c2ccc(Cl)cc2)o1)N(Cc1ccccn1)c1ccc(N2CCNCC2)cc1	11.2 µM	95.2%	–
COC[C@H]1OC(=O)/C(=C/N(C)CCCN(C)C)C2=C(O)C(=O)C3=C([C@H](OC(C)=O)C[C@]4(C)[C@@H](O)CC[C@@H]34)[C@]21C	8.91 µM	62.1%	–
CC(C)C(=O)O[C@H]1[C@@H]2[C@H](C)C(=O)O[C@@H]2C[C@@H](C)[C@@H]2C=CC(=O)[C@]21C	12.6 µM	34.2%	–
CN(CCc1ccc(Nc2ncc(-c3cccnc3)s2)cc1)Cc1ccccc1	12.6 µM	44.4%	–
C/C(=N\NC(=O)c1cccc(S(=O)(=O)N2CCOCC2)c1)c1cc(Cl)ccc1O	1 µM	–	–
CC(=NNC(=S)N1CCC1)c1ccccn1	0.355 µM	–	–
CC(C)C[C@H](NC(=O)[C@H](Cc1ccccc1)NC(=O)OCc1ccccc1)C(=O)C=O	11.2 µM	33.4%	–
C[C@@H]1O[C@@H](O[C@H]2[C@H](OC(=O)[C@]34CCC(C)(C)C[C@H]3C3=CCC5[C@@]6(C)CC[C@H](O[C@@H]7O[C@H](CO[C@@H]8OC[C@H](O)[C@H](O)[C@H]8O)[C@@H](O)[C@H](O)[C@H]7O)C(C)(C)C6CC[C@@]5(C)[C@]3(C)C[C@H]4O)OC[C@@H](O)[C@@H]2O)[C@H](O)[C@H](O[C@@H]2OC[C@](O)(CO)[C@H]2O)[C@H]1O[C@@H]1OC[C@H](O)[C@H](O[C@@H]2OC[C@@H](O)[C@H](O)[C@H]2O)[C@H]1O (stereo partly specified)	–	–	0.955 µM
CCOc1ccc(-c2nc(-c3cccc4c3CCC4NCCO)no2)cc1OCC (stereo unspecified)	0.631 µM	–	–
CC(C)(C[C@@](O)(Cc1cc2ccncc2[nH]1)C(F)(F)F)c1cc(F)ccc1O	15.8 µM	22.4%	–
COc1c(C)cnc(Cn2cnc3c(Cl)nc(N)nc32)c1C	0.355 µM	–	–
O=S(=O)(NCC1CC1)c1ccc(Nc2nccc(N3CCCc4cc(O)ccc43)n2)cc1	–	–	0.794 µM
CCC[C@@H](C=O)NC(=O)[C@H](CC(C)C)NC(=O)[C@H](CC(C)C)NC(=O)OCc1ccccc1	1.13 µM	115%	–
COCCN1CCN(Cc2ccc(-c3n[nH]c4c3C(=O)c3c(NC(=O)NN5CCOCC5)cccc3-4)cc2)CC1	0.316 µM	–	–
C(=N\Nc1nc(Nc2ccccc2)nc(N2CCOCC2)n1)/c1c[nH]c2ccccc12	–	–	0.113 µM
CC1(C)CC(=O)c2c(C(F)(F)F)nn(-c3ccc(C(N)=O)c(N[C@H]4CC[C@H](OC(=O)CN)CC4)c3)c2C1	0.562 µM	–	–
c1ccc(-c2ccc(CNc3nc(-c4ccccn4)nnc3-c3ccccc3)cc2)cc1	0.562 µM	–	0.631 µM
